According to publication PMC12118597 (Science Advances, 2025):
Where “and” joins values, the source holds several entries; their conditions need not be identical. Identical values can stand only once. Like-named read-outs stand apart in the source and are kept apart here.

Assays:
[1] = target: T1, SARS-CoV-2 NSP3 macrodomain (Mac1) (Severe acute respiratory syndrome coronavirus 2, UniProt P0DTD1); assay type: binding; conditions: for Number of isomers bound: ligand modeling, Mac1 crystal soak; for 1-BDC: PanDDA background density correction; for X-ray crystal structure: TRUE = crystal structure with ligand obtained; for Hit (PanDDA run, overall): crystal soak, 10 mM soak concentration; for Refined ligand occupancy (%): crystallographic refinement; for 2*(1-BDC) (%): occupancy estimate from PanDDA; for Binding site: site of ligand in X-ray crystal structure
[2] = target: T1, SARS-CoV-2 NSP3 macrodomain (Mac1); test: biochemical; assay type: binding
[3] = SARS CoV-2 macrodomain HTRF assay, single dose concentration 200 μM, read-out: Average % competition
[4] = compound at 200 μM, mean of three to four technical replicates, read-out: % competition at 200 μM (preliminary HTRF screen)
[5] = crystal soak 10 mM, P43 crystal form
[6] = crystal soak 10 mM, DMSO background map
[7] = stereoisomer(s) modeled as bound, residues 201/202/203
[8] = crystal soak 10 mM, TFA/DMSO background map
[9] = SARS CoV-2 macrodomain HTRF assay
[10] = read-out: IC50 (confirmatory HTRF dose-response screen)
[11] = crystal soak 10 mM, DMSO background map, event 1
[12] = HTRF binding curve, SARS-CoV-2 Mac1
[13] = SARS CoV-2 macrodomain HTRF assay, dose-response
[14] = SARS CoV-2 macrodomain HTRF assay, dose-response, read-out: IC50

Compound | Number of isomers bound [1] | inhibition at 200 µM [2, 3] [%] | inhibition at 200 µM [2, 4] [%] | PanDDA run, TFA/DMSO background map: 1-BDC [1, 8] | PanDDA run, TFA/DMSO background map: Hit [1, 8] | Ki [2, 9] [µM] | Ligand efficiency (binding enery per heavy atom) [2, 9] | other results
CC(C)(C)[C@@H]1CCN(c2ncnc3[nH]ccc23)[C@H](CO)C1 [AVI-3722] | 1 | 22 | 22 |  |  |  |  | 
OC[C@H]1CN2CCC[C@H]2CN1c1ncnc2[nH]ccc12 [AVI-3724] |  | < 10 | < 10 |  |  |  |  | PanDDA run, overall: Hit [1, 5]: TRUE; PanDDA run, overall: Modeling comment [1, 5]: Weak density, not modeled; PanDDA run, DMSO background map: 1-BDC [1, 6]: 0.05; PanDDA run, DMSO background map: Hit [1, 6]: TRUE
CC1(C)CCC(CO)N(c2ncnc3[nH]ccc23)C1 (centres unmarked) [AVI-3726] | 2 | 76 | 76 |  |  |  |  | Isomers modeled [1, 7]: R,R,S
OCC1CC2(CCCCC2)CN1c1ncnc2[nH]ccc12 (centres unmarked) [AVI-3727] | 1 | 67 | 67 | 0.25 | TRUE |  |  | 
OCC1CC2(CCC2)CN1c1ncnc2[nH]ccc12 (centres unmarked) [AVI-3728] | 1 | 79 | 79 | 0.26 | TRUE |  |  | Isomers modeled [1, 7]: S,S
C[C@@H](O)[C@H](CO)Nc1ncnc2[nH]ccc12.O=C(O)C(F)(F)F [AVI-3730] | 1 |  | 63 | 0.12 | TRUE |  |  | Average % competition ([2]; Single dose, concentration 200 μM): 63%
O=C(O)C(F)(F)F.OC1([C@H]2CCCN2c2ncnc3[nH]ccc23)Cc2ccccc2C1 [AVI-3731] | 1 |  |  | 0.14 | TRUE | 3.4 | 0.31 | IC50 [2, 10]: 3.7 µM
Cc1nn(C)cc1C1CC[C@H](CO)N1c1ncnc2[nH]ccc12 (some centres unmarked) [AVI-3733] | 1 | 44 | 44 |  |  |  |  | 
OCCC(CO)Nc1ncnc2[nH]ccc12 (centres unmarked) [AVI-3734] | 1 |  |  |  |  | 48 | 0.37 | IC50 [2, 10]: 52 µM
Cc1c[nH]c2ncnc(NCC(C)(C)O)c12 [AVI-3758, 2-methyl-1-((5-methyl-7H-pyrrolo[2,3-d]pyrimidin-4-yl)amino)propan-2-ol] |  |  |  |  |  | 26 | 0.40 | 1-BDC [1]: 0.14; X-ray crystal structure [1]: TRUE; Hit (PanDDA run, DMSO background map) [1, 6]: TRUE; 1-BDC (PanDDA run, DMSO background map) [1, 11]: 0.19 and 0.14; Hit (PanDDA run, overall) ([1]; P43 crystal form): TRUE; Refined ligand occupancy (%) [1]: 50%; 2*(1-BDC) (%) [1]: 28%; Binding site [1]: Adenosine; Hill slope [2, 12]: 1.0; Hill slope [2, 13]: 1.0; IC50 [2, 10]: 28 µM
Cc1c[nH]c2ncnc(NCC3(O)CCCC3)c12 [AVI-3760, 1-(((5-methyl-7H-pyrrolo[2,3-d]pyrimidin-4-yl)amino)methyl)cyclopentan-1-ol] |  |  |  |  |  | 18 | 0.36 | 1-BDC [1]: 0.16; X-ray crystal structure [1]: TRUE; Hit (PanDDA run, DMSO background map) [1, 6]: TRUE; 1-BDC (PanDDA run, DMSO background map) [1, 11]: 0.19 and 0.16; Hit (PanDDA run, overall) ([1]; P43 crystal form): TRUE; Refined ligand occupancy (%) [1]: 50%; 2*(1-BDC) (%) [1]: 32%; Binding site [1]: Adenosine; Hill slope [2, 12]: 1.1; Hill slope [2, 13]: 1.1; IC50 [2, 14]: 19 µM
C[C@@H]1CCN(c2ncnc3[nH]ccc23)[C@H](CO)C1 [AVI-4064] |  |  |  |  |  | 93 | 0.31 | Isomers modeled ([1]; stereoisomer(s)/conformations of the soaked ligand modeled in the Mac1 crystal structure): RS,SR; IC50 [2, 14]: 100 µM
O=C(O)C(F)(F)F.OC[C@H](Cc1ccc(O)cc1)Nc1ncnc2[nH]ccc12 [AVI-4066] |  |  |  |  |  | 670 | 0.21 | Hit (PanDDA run, TFA/DMSO background map) [1, 8]: TRUE; 1-BDC (PanDDA run, TFA/DMSO background map) ([1]; crystal soak 10 mM, TFA/DMSO background map, event 1): 0.19 and 0.29 and 0.3; IC50 [2, 14]: 720 µM
